Laboratory results taken from US20130281449A1, “Oxazine Derivatives and their Use in the Treatment of Neurological Disorders” (NOVARTIS AG, priority 2011, published 2013).
Structures can show the parent of a compound that is named as a salt.

What was measured:
Human BACE-1 = Human BACE-1 (Homo sapiens, UniProt P56817); assay: Test 1: Inhibition of Human BACE-1; assay type: biochemical; conditions: mean IC50 values in Test 1; recombinant BACE-1, pH 4.5
Protocol: Test 1: Inhibition of Human BACE-1
IC50 values are calculated from percentage of inhibition of BACE-1 activity as a function of the test compound concentration.

[1] = test system: Cellular Release of Amyloid Peptide 1-40; assay: Test 4: Inhibition of Cellular Release of Amyloid Peptide 1-40; assay type: cell-based, Chinese hamster; conditions: Cricetulus griseus, 24 h; read-out: Amyloid-β1-40 release IC50
Protocol: Chinese hamster ovary cells are transfected with the human gene for amyloid precursor protein. The cells are plated at a density of 8000 cells/well into 96-well microtiter plates and cultivated for 24 hours in DMEM cell culture medium containing 10% FCS. The test compound is added to the cells at various concentrations, and the cells are cultivated for 24 hours in the presence of the test compound. […] The potency of the compound is calculated from the percentage of inhibition of amyloid peptide release as a function of the test compound concentration.

Chain of Human BACE-1 (P56817 46-457 limits assumed): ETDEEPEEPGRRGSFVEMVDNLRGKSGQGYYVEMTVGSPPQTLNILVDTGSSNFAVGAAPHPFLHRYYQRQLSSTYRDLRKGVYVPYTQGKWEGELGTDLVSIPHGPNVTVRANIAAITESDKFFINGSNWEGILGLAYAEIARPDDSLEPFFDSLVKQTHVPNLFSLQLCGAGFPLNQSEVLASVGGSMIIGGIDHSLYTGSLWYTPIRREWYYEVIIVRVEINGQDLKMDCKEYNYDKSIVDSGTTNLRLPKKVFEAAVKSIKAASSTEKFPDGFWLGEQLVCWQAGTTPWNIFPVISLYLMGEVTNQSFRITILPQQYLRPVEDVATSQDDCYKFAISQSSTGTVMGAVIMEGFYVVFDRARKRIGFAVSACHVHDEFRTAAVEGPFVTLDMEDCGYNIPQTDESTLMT

SMILES	IC50 (Human BACE-1) [nM]	IC50 [1] [nM]
COCc1cc(Cl)cnc1C(=O)Nc1ccc(F)c([C@]2(C(F)F)COCC(N)=N2)c1 [Example 1, 5-Chloro-3-methoxymethyl-pyridine-2-carboxylic acid [3-((R)-5-amino-3-difluoromethyl-3,6-dihydro-2H-[1,4]oxazin-3-yl)-4-fluoro-phenyl]-amide]	18	6
[2H]C([2H])([2H])OC([2H])([2H])c1cc2c(Cl)c[nH]c2nc1C(=O)Nc1ccc(F)c([C@]2(C)CO[C@@](C)(C(F)(F)F)C(N)=N2)c1 [Example 33, 3-Chloro-5-trideuteromethoxy-dideuteromethyl-1H-pyrrolo[2,3-b]pyridine-6-carboxylic acid [3-((3R,6R)-5-amino-3,6-dimethyl-6-trifluoromethyl-3,6-dihydro-2H-[1,4]oxazin-3-yl)-4-fluoro-phenyl]-amide]	13	41
Cc1cc(Cl)cnc1C(=O)Nc1ccc(F)c([C@]2(C)CO[C@@](C)(C(F)(F)F)C(N)=N2)c1 [Example 20, 5-Chloro-3-methyl-pyridine-2-carboxylic acid [3-((3R,6R)-5-amino-3,6-dimethyl-6-trifluoromethyl-3,6-dihydro-2H-[1,4]oxazin-3-yl)-4-fluoro-phenyl]-amide hydrochloride]	5	26
C#CCOc1cnc(C(=O)Nc2ccc(F)c([C@]3(C)CO[C@@](C)(C(F)(F)F)C(N)=N3)c2)c(N)n1 [Example 25, 3-Amino-5-prop-2-ynyloxy-pyrazine-2-carboxylic acid [3-((3R,6R)-5-amino-3,6-dimethyl-6-trifluoromethyl-3,6-dihydro-2H-[1,4]oxazin-3-yl)-4-fluoro-phenyl]-amide]	1	1
COc1cc(C(F)F)c(C(=O)Nc2ccc(F)c([C@]3(C)CO[C@@](C)(C(F)(F)F)C(N)=N3)c2)nn1 [Example 30, 4-Difluoromethyl-6-methoxy-pyridazine-3-carboxylic acid [3-((3R,6R)-5-amino-3,6-dimethyl-6-trifluoromethyl-3,6-dihydro-2H-[1,4]oxazin-3-yl)-4-fluoro-phenyl]-amide hydrochloride]	150	62
